Test results as given in patent US9115122B2, “Non-ATP dependent inhibitors of extracellular signal-regulated kinase (ERK)” (UNIVERSITY OF MARYLAND, BALTIMORE, priority 2012, dated 2015).

Key:
Assay in all cases: Cell proliferation WST-1 assay, single dose (Example 4)
Format in all cases: cell-based
Details in all cases: 100 μM, 48 hours
[1] = tested on: A375 melanoma cells
Protocol: (§1) In addition, compounds were tested in RPMI-7951 cells, which also contain mutated BRaf and are resistant to BRaf inhibitors due to the overexpression of MAP3K8 (the gene encoding COT/Tp12) that provides an alternative mechanism to indirectly or directly activate ERK proteins. […] For comparison, HeLa cervical carcinoma and Jurkat T-cell leukemia cells, which are p53 defective cancer cell lines but contain no known activating mutations in the ERK pathway, were studied. […] Cell proliferation was evaluated by water soluble tetrazolium-1 (WST-1) assay as previously described. Briefly, cells (˜5000/well) were seeded in 96 well plates, allowed to recover for 16-20 hours, and then treated with the indicated test compound for 48 hours. After incubation, WST-1 reagent was added and absorbance was read at 450 nm with background subtraction taken at 650 nm. Values were normalized to the control (DMSO only treated) cells.

[2] = tested on: HL-60 leukemic cells
Protocol: as §1

[3] = tested on: HeLa cervical carcinoma cells
Protocol: as §1

[4] = tested on: Jurkat T-cell leukemia cells
Protocol: as §1

[5] = tested on: RPMI-7951 melanoma cells
Protocol: as §1

[6] = tested on: SK-MEL-28 melanoma cells
Protocol: as §1

| SMILES | Cell Viability (% of Vehicle) A375 [1] | Cell Viability (% of Vehicle) HL-60 [2] | Cell Viability (% of Vehicle) HeLa [3] | Cell Viability (% of Vehicle) Jurkat [4] | Cell Viability (% of Vehicle) RPMI-7951 [5] | Cell Viability (% of Vehicle) SK-MEL-28 [6] |
| --- | --- | --- | --- | --- | --- | --- |
| CCOc1ccc(/C=C2\SC(=O)N(Cc3ccccc3)C2=O)cc1 [Compound 28i, (Z)-3-benzyl-5-(4-ethoxybenzylidene)thiazolidine-2,4-dione] | 110 ± 4 % of Vehicle | 65 ± 1 % of Vehicle | 95 ± 4 % of Vehicle | 105 ± 4 % of Vehicle | 114 ± 20 % of Vehicle | 90 ± 3 % of Vehicle |
| CCOc1ccc(/C=C2\SC(=O)N(Cc3ccccn3)C2=O)cc1 [Compound 28j, (Z)-5-(4-ethoxybenzylidene)-3-(pyridin-2-ylmethyl)thiazolidine-2,4-dione] | 124 ± 6 % of Vehicle | 89 ± 31 % of Vehicle | 89 ± 5 % of Vehicle | 101 ± 7 % of Vehicle | 114 ± 5 % of Vehicle | 95 ± 3 % of Vehicle |
| CCOc1ccc(/C=C2\SC(=O)N(Cc3cccnc3)C2=O)cc1 [Compound 28k, (Z)-5-(4-ethoxybenzylidene)-3-(pyridin-3-ylmethyl)thiazolidine-2,4-dione] | 105 ± 4 % of Vehicle | 65 ± 12 % of Vehicle | 80 ± 2 % of Vehicle | 98 ± 2 % of Vehicle | 102 ± 2 % of Vehicle | 79 ± 4 % of Vehicle |
| CCOc1ccc(/C=C2\SC(=O)N(Cc3ccncc3)C2=O)cc1 [Compound 28l, (Z)-5-(4-ethoxybenzylidene)-3-(pyridin-4-ylmethyl)thiazolidine-2,4-dione] | 105 ± 12 % of Vehicle | 82 ± 54 % of Vehicle | 81 ± 5 % of Vehicle | 96 ± 11 % of Vehicle | 102 ± 3 % of Vehicle | 79 ± 3 % of Vehicle |
| CCOc1ccc(/C=C2\SC(=O)N(Cc3ccc(C#N)cc3)C2=O)cc1 [Compound 28m, (Z)-4-((5-(4-ethoxybenzylidene)-2,4-dioxothiazolidin-3-yl)methyl)benzonitrile] | 108 ± 3 % of Vehicle | 86 ± 37 % of Vehicle | 95 ± 3 % of Vehicle | 103 ± 11 % of Vehicle | 106 ± 8 % of Vehicle | 97 ± 7 % of Vehicle |
| CCOc1ccc(/C=C2\SC(=O)N(Cc3ccc([N+](=O)[O-])cc3)C2=O)cc1 [Compound 28n, (Z)-5-(4-ethoxybenzylidene)-3-(4-nitrobenzyl)thiazolidine-2,4-dione] | 117 ± 3 % of Vehicle | 97 ± 23 % of Vehicle | 97 ± 9 % of Vehicle | 101 ± 9 % of Vehicle | 119 ± 13 % of Vehicle | 104 ± 3 % of Vehicle |
| CCOc1ccc(/C=C2\SC(=O)N(Cc3ccc(N)cc3)C2=O)cc1 [Compound 28o, (Z)-3-(4-aminobenzyl)-5-(4-ethoxybenzylidene)thiazolidine-2,4-dione] | 119 ± 6 % of Vehicle | 86 ± 21 % of Vehicle | 89 ± 9 % of Vehicle | 97 ± 7 % of Vehicle | 102 ± 23 % of Vehicle | 94 ± 5 % of Vehicle |
| CCOc1ccc(/C=C2\SC(=O)N(Cc3ccc(C(=O)OC(C)(C)C)cc3)C2=O)cc1 [Compound 28p, (Z)-tert-butyl 4-((5-(4-ethoxybenzylidene)-2,4-dioxothiazolidin-3-yl)methyl)benzoate] | 119 ± 1 % of Vehicle | 98 ± 24 % of Vehicle | 100 ± 6 % of Vehicle | 101 ± 2 % of Vehicle | 122 ± 1 % of Vehicle | 105 ± 3 % of Vehicle |
| CCOc1ccc(/C=C2\SC(=O)N(Cc3ccc(C(=O)O)cc3)C2=O)cc1 [Compound 28q, (Z)-4-((5-(4-ethoxybenzylidene)-2,4-dioxothiazolidin-3-yl)methyl)benzoic acid] | 2.0 ± 0.5 % of Vehicle | 84 ± 37 % of Vehicle | 64 ± 2 % of Vehicle | 85 ± 3 % of Vehicle | 34 ± 3 % of Vehicle | 59 ± 13 % of Vehicle |
| CCOc1ccc(/C=C2\SC(=O)N(Cc3cccc(C(=O)O)c3)C2=O)cc1 [Compound 28r, (Z)-3-((5-(4-ethoxybenzylidene)-2,4-dioxothiazolidin-3-yl)methyl)benzoic acid] | 59 ± 1 % of Vehicle | 41 ± 22 % of Vehicle | 75 ± 4 % of Vehicle | 80 ± 3 % of Vehicle | 83 ± 6 % of Vehicle | 83 ± 7 % of Vehicle |
| CCOc1ccc(/C=C2\SC(=O)N(Cc3ccccc3C(=O)O)C2=O)cc1 [Compound 28s, (Z)-2-((5-(4-ethoxybenzylidene)-2,4-dioxothiazolidin-3-yl)methyl)benzoic acid] | 39 ± 1 % of Vehicle | 31 ± 15 % of Vehicle | 61 ± 4 % of Vehicle | 46 ± 1 % of Vehicle | 45 ± 8 % of Vehicle | 49 ± 8 % of Vehicle |
| NCCN1C(=O)S/C(=C\c2ccccc2)C1=O [Compound 30a, (Z)-3-(2-aminoethyl)-5-benzylidenethiazolidine-2,4-dione] | 82 ± 9 % of Vehicle | 28 ± 20 % of Vehicle | 82 ± 10 % of Vehicle | 88 ± 4 % of Vehicle | 89 ± 17 % of Vehicle | 88 ± 7 % of Vehicle |
| CCOc1cccc(/C=C2\SC(=O)N(CCN)C2=O)c1 [Compound 30b, (Z)-3-(2-aminoethyl)-5-(3-ethoxybenzylidene)thiazolidine-2,4-dione] | 19 ± 3 % of Vehicle | 4.8 ± 2 % of Vehicle | 40 ± 1 % of Vehicle | 54 ± 5 % of Vehicle | 30 ± 2 % of Vehicle | 36 ± 6 % of Vehicle |
| CCOc1ccccc1/C=C1\SC(=O)N(CCN)C1=O [Compound 30c, (Z)-3-(2-aminoethyl)-5-(2-ethoxybenzylidene)thiazolidine-2,4-dione] | 22 ± 9 % of Vehicle | 8.9 ± 4 % of Vehicle | 39 ± 3 % of Vehicle | 66 ± 5 % of Vehicle | 45 ± 2 % of Vehicle | 52 ± 11 % of Vehicle |
